# From the supplement of paper PMC10307832
# Key:
# Test in all cases: relative viability (nuclei count vs DMSO), 5 days (fraction); higher = more cells survive
# [1] = compound: Nc1ccccc1NC(=O)c1ccc(CNC(=O)OCc2cccnc2)cc1 [Entinostat] + CC(C)C[C@H](NC(=O)[C@H](Cc1ccccc1)NC(=O)c1cnccn1)B(O)O [Bortezomib] (partner 0.002 µM)
# In short: (§1)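 Values are medians from duplicate plates. Each reflects relative viability, defined as the nuclei count of treated wells over that of vehicle wells. Lung cancer cell lines in 1536-well plates were pin-tool dosed one day after seeding with one drug alone or with a fixed anchor-drug dose plus five library-drug doses (not always all listed) in √10 steps, then fixed, stained and imaged at 4× after 5 days.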
# [2] = compound: C1COCCN1C2=NC(=NC3=C2OC4=C3C=CC=N4)C5=CC(=CC=C5)NC(=O)C6=CN=C(C=C6)N + Nc1ncn([C@H]2C[C@H](O)[C@@H](CO)O2)c(=O)n1 [Decitabine] (partner 2 µM)
# In short: as §1
# [3] = compound: C1COCCN1C2=NC(=NC3=C2OC4=C3C=CC=N4)C5=CC(=CC=C5)NC(=O)C6=CN=C(C=C6)N + C[C@]1(O)C[C@@H](c2nc(-c3ccc4ccc(-c5ccccc5)nc4c3)c3c(N)nccn32)C1 [Linsitinib] (partner 1 µM)
# In short: as §1
# [4] = compound: C1COCCN1C2=NC(=NC3=C2OC4=C3C=CC=N4)C5=CC(=CC=C5)NC(=O)C6=CN=C(C=C6)N + C[C@@H](Oc1cc(-c2cnn(C3CCNCC3)c2)cnc1N)c1c(Cl)ccc(F)c1Cl [Crizotinib] (partner 1 µM)
# In short: as §1
Cell Line,relative viability ([1]; first compound 0.02 µM),relative viability ([1]; first compound 0.06325 µM),relative viability ([1]; first compound 0.2 µM),relative viability ([1]; first compound 0.6325 µM),relative viability ([1]; first compound 2 µM),relative viability ([2]; first compound 0.02 µM),relative viability ([2]; first compound 0.06325 µM),relative viability ([2]; first compound 0.2 µM),relative viability ([2]; first compound 0.6325 µM),relative viability ([2]; first compound 2 µM),relative viability ([3]; first compound 0.02 µM),relative viability ([3]; first compound 0.06325 µM),relative viability ([3]; first compound 0.2 µM),relative viability ([3]; first compound 0.6325 µM),relative viability ([3]; first compound 2 µM),relative viability ([4]; first compound 0.02 µM),relative viability ([4]; first compound 0.06325 µM),relative viability ([4]; first compound 0.2 µM),relative viability ([4]; first compound 0.6325 µM),relative viability ([4]; first compound 2 µM)
201T,1.09,1.11,1.05,1.01,0.872,0.864,0.856,0.872,0.862,0.785,1,1.01,1.05,0.981,0.97,1.02,1.05,1.03,1.01,0.736
A549,–,–,–,–,–,–,0.362,0.265,0.238,0.256,0.59,0.636,0.6,0.455,0.283,1,0.903,0.66,0.764,0.302
A-427,0.99,0.975,0.966,0.916,0.632,0.588,0.512,0.619,0.679,0.579,1.08,1.14,1.08,0.901,0.673,0.895,0.881,0.738,0.809,0.406
ABC-1,0.338,0.327,0.331,0.216,0.277,0.929,1.07,0.98,1.23,1.08,0.724,0.93,0.713,0.635,0.538,1.02,1.29,0.93,1.33,0.666
BEN,0.96,0.797,0.741,0.577,0.247,0.75,0.762,0.697,0.752,0.637,0.953,0.94,1.05,0.941,0.569,0.928,0.841,0.932,0.821,0.504
CAL-12T,1.19,0.973,0.96,0.99,0.665,–,–,–,–,–,0.622,0.813,0.886,0.782,0.584,0.843,0.634,0.688,0.559,0.507
COR-L23,0.994,0.881,0.964,0.423,0.147,0.478,0.502,0.469,0.602,0.389,1.16,0.978,0.933,1.04,0.543,0.68,0.748,0.716,0.809,0.43
COR-L 105,0.608,0.914,0.926,0.484,0.313,0.604,0.683,0.61,0.621,0.572,0.984,1.03,0.822,0.905,0.672,0.792,0.722,0.567,0.752,0.481
Calu-6,1.02,1.02,0.944,0.69,0.504,–,–,–,–,–,0.943,1.14,0.975,0.9,0.527,1.1,0.876,0.758,0.822,0.454
ChaGo-K-1,1.41,1.02,1.09,0.94,0.623,0.563,0.544,0.517,0.601,0.458,–,–,–,–,–,1.2,1.14,1.01,1.26,0.717
EBC-1,0.564,0.599,0.293,0.196,0.176,–,–,–,–,–,0.826,1.07,0.875,0.847,0.58,0.209,0.196,0.197,0.168,0.172
EKVX,1.1,0.992,0.999,0.853,0.445,0.335,0.321,0.325,0.383,0.567,1.1,1.02,1.1,0.972,0.642,1.06,0.985,1.03,1.03,0.62
EMC-BAC-2,1.11,1.16,1.1,0.898,0.516,0.96,1.06,0.947,0.953,0.779,0.815,0.83,0.749,0.762,0.491,0.8,0.792,0.76,0.805,0.598
EPLC-272H,0.889,0.848,0.879,0.299,0.204,0.329,–,0.386,0.382,0.376,1.27,1.07,1.12,1.01,0.721,0.977,1.03,1.01,1.04,0.722
H3255,0.797,0.844,0.577,0.401,0.28,0.577,0.575,0.599,0.798,0.559,0.908,1.09,1.04,0.949,0.702,0.729,0.805,0.758,0.844,0.586
HARA,1.13,1.1,1.11,1.04,0.465,0.529,0.569,0.64,0.576,0.412,1.15,1.04,1.02,0.783,0.361,1.01,1.23,1.06,0.978,0.662
HCC-15,1.02,0.945,0.876,0.403,0.413,0.606,0.646,0.608,0.691,0.429,0.871,0.926,0.813,0.832,0.634,0.824,0.938,0.843,0.819,0.545
